“Also recorded” adds a separate entry of the source.
Test system: oxazolone-induced contact hypersensitivity in mice
Experiment: oxazolone-induced contact hypersensitivity (hapten-specific increase in ear thickness at 24 hours)
Type: in vivo, mouse
Settings: for effect on CSH/CHS response to oxazolone, systemic administration: systemic (i.p.) administration
Text: 8-12 week old female C57B1/6 mice were purchased from Taconic Farms. Inc. (Germantown, N.Y.). The CD1d-null allele (generated in a 129×C57B1/6 founder (25) (26) was backcrossed 7 generations into the C57B1/6 strain. (15) Homozygous CD1d deficient mice were obtained from littermate pairings and used to generate heterozygote CD1d deficient and wild type controls. Breeding pairs of mice deficient for CD1d on the BALB/c background were purchased from Jackson Labs (Bar Harbor, Me.). The C57B1/6 and BALB/c J 281 null mice were established by specific deletion of the J 281 gene segment (27) (28). All mouse experiments were approved and conducted under IACUC guidelines.
Mice at least seven weeks of age were sensitized epicutaneously on day 0 with 70 μl of 4% 4-ethoxymethylene-2-phenyl-2-oxazolin-5-one (oxazolone, Sigma, St. Louis, Mo.) in acetone/olive oil (4/1) and challenged five days later on the right ear with 20 μl of 0.5% oxazolone or carrier only on the left ear. The hapten-specific increase in ear thickness at 24 hours was determined with a micrometer.
Mice received a series of 5 intraperitoneal injections of either 2 μg of αManCer (2 μg i.p. diluted in a solution of phosphate buffered saline and 0.5% Tween-20 every other day, starting 3 days prior to skin sensitization and continuing through to re-challenge.
Significant differences between groups were evaluated with a Mann-Whitney test, or where appropriate, a two tailed Student's t test. Mean differences were considered significant when p<0.05.

Compound | inhibition of CSH by control substances (specificity) (specificity controls for DPPE-PEG, FIG. 2 and data not shown, result in words) | effect on CSH/CHS response to oxazolone, systemic administration (result in words) | inhibition of oxazolone-induced CSH in MHC-unrelated mouse strains (topical 100 mg/ml, SWR, C57B1/10, DBA, BALB/c mice, FIG. 5, result in words) | Half-maximal inhibition of CSH (topical concentration) (topical, applied with 4% oxazolone at sensitization, wild type C57B1/6 mice, FIG. 4A) [mg/mL] | inhibition of contact hypersensitivity, inhibitor present at both phases (topical, during both priming and recall, FIG. 4B, result in words) | inhibition of contact hypersensitivity, inhibitor present in one phase only (topical, only during priming or only during recall, FIG. 4B, result in words) | inhibition of oxazolone-induced contact hypersensitivity, topical at sensitization (topical, with oxazolone on day 0 (100 mg/ml, or increasing doses 0-100 mg/ml), FIG. 3, 4A, result in words)
CCCCCCCCCCCCCCCC(=O)O [palmitic acid, reference compound] | neither palmitic acid, nor PEG alone were effective inhibitors of CSH |  |  |  |  |  | 
1,2-Dipalmitoyl-sn-Glycero-3-Phosphoethanolamine-N-[Poly(ethylene glycol) 2000] [DPPE-PEG] |  | inhibited CHS as effectively as α-ManCer | effective inhibitor in all strains tested | 25 | maximally inhibited | also inhibited, but to a lesser extent | inhibits oxazolone-induced contact hypersensitivity; also recorded: inhibit oxazolone-induced hypersensitivity in a dose-dependent manner
CCCCCCCCCCCCCCCCCCCCCCCCCC(=O)N[C@@H](COC1O[C@H](CO)[C@H](O)[C@H](O)[C@H]1O)[C@H](O)[C@H](O)CCCCCCCCCCCCCC (stereo partly drawn) [α-GalCer, (2S,3S,4R)-1-O-(-D-galactopyranosyl)-2-(N-hexacosanoylamino)-1,3,4-octadecanetriol, reference compound] |  | did not alter the CSH response |  |  |  |  | 

— US10226476B2, “Method of attenuating reactions to skin irritants” (Dana-Farber Cancer Institute, Inc., priority 2001, dated 2019)
